Our source for the IC50 values is patent publication US20150175599A1, “FAAH Inhibitors” (Ironwood Pharmaceuticals, Inc., priority 2010, published 2015).

pIC50: −log10 of the molar value.

For the assay, the target named is T1, FAAH (Rattus norvegicus, UniProt P97612).
T1 construct: For the assay of FAAH activity in rat brain membrane (RBM) homogenates; tissue Charles River (animals); host or cells: rat whole brain, membrane fraction
T1 sequence (P97612 1-579): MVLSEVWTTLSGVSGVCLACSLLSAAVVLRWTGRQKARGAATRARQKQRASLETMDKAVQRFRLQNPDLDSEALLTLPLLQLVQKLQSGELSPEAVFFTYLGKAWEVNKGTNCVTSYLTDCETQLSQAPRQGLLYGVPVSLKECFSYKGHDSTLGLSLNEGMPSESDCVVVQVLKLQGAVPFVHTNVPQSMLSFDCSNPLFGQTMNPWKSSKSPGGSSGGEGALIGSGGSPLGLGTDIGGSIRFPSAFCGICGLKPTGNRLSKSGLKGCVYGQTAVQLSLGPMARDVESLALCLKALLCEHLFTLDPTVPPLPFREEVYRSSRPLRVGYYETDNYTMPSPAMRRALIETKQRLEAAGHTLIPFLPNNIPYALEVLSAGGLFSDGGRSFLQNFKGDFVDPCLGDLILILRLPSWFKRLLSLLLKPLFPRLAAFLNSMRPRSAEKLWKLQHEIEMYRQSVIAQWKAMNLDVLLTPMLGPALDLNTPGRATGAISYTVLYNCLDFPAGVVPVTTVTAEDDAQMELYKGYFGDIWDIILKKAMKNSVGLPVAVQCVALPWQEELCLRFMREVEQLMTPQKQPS
Put plainly: FAAH inhibition, rat brain membrane homogenate assay. It counts as biochemical. The settings on record: rat brain homogenate; average activity; read-out: Rat Brain Extract FAAH IC50. A digest of the protocol:
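Membranes from female CD rat brain (Tris pH 7.4/EDTA/MgCl2 resuspension), 7 μg protein, incubated 10 min at 37 °C with [3H]anandamide plus […] unlabelled AEA, 1 mg/mL fatty acid-free BSA, Tris-HCl pH 6.5, 1 mM EDTA, 1% DMSO. [3H]ethanolamine separated by chloroform/methanol extraction or charcoal filtration, scintillation-counted; IC50 derived.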
For orientation: pIC50 means the IC50 on a negative log10 scale, so that one unit is a factor of ten. Take `COc1cc(NC(=O)C(=O)c2c(C)n(Cc3ccc(Cl)cc3Cl)c3cc(F)c(OC)cc23)ccn1` [Compound 92, 2-(1-(2,4-dichlorobenzyl)-6-fluoro-5-methoxy-2-methyl-1H-indol-3-yl)-N-(2-methoxypyridin-4-yl)-2-oxoacetamide]: the pIC50 is over 7.00.

With `COc1ccc2c(c1)c(C(=O)C(=O)Nc1ccnc(OC)c1)c(C)n2Cc1cccnc1` [Compound 78, 2-(5-methoxy-2-methyl-1-(pyridin-3-ylmethyl)-1H-indol-3-yl)-N-(2-methoxypyridin-4-yl)-2-oxoacetamide], the negative logarithm of the IC50 (pIC50) is 6.00 to 7.00.

As for `COc1cc(NC(=O)C(=O)c2c(C)n(Cc3ccc(Cl)cn3)c3cc(F)c(C)cc23)ccn1` [Compound 90, 2-(1-((5-chloropyridin-2-yl)methyl)-6-fluoro-2,5-dimethyl-1H-indol-3-yl)-N-(2-methoxypyridin-4-yl)-2-oxoacetamide], the pIC50 is over 7.00.

Turning to `COc1cc(NC(=O)C(=O)c2c(C)n(Cc3ccc(Cl)cn3)c3cc(Cl)c(C)cc23)ccn1` [Compound 94, 2-(6-chloro-1-((5-chloropyridin-2-yl)methyl)-2,5-dimethyl-1H-indol-3-yl)-N-(2-methoxypyridin-4-yl)-2-oxoacetamide], the pIC50 is over 7.00.

Consider `COc1cc(NC(=O)C(=O)c2c(C)n(Cc3ccc(F)cn3)c3ccc(C)cc23)ccn1` [Compound 85, 2-(1-((5-fluoropyridin-2-yl)methyl)-2,5-dimethyl-1H-indol-3-yl)-N-(2-methoxypyridin-4-yl)-2-oxoacetamide], for which the pIC50 was over 7.00.

For the molecule `COc1ccc2c(c1)c(C(=O)C(=O)Nc1ccnc(OC)c1)c(C)n2Cc1ccc(C)cn1` [Compound 84, 2-(5-methoxy-2-methyl-1-((5-methylpyridin-2-yl)methyl)-1H-indol-3-yl)-N-(2-methoxypyridin-4-yl)-2-oxoacetamide], the pIC50 is over 7.00.

In the case of `COc1cc(NC(=O)C(=O)c2c(C)n(Cc3ccc(Cl)cc3)c3cc(Cl)c(C)cc23)ccn1` [Compound 93, 2-(6-chloro-1-(4-chlorobenzyl)-2,5-dimethyl-1H-indol-3-yl)-N-(2-methoxypyridin-4-yl)-2-oxoacetamide], the pIC50 is over 7.00.

In the case of `COc1cc(NC(=O)C(=O)c2c(C)n(Cc3ccc(Cl)cc3)c3ccc(C(=O)O)cc23)ccn1` [Compound 4, 1-(4-chlorobenzyl)-3-(2-(2-methoxypyridin-4-ylamino)-2-oxoacetyl)-2-methyl-1H-indole-5-carboxylic acid], the pIC50 was 5.00 to 6.00.

Consider `COc1cc(NC(=O)C(=O)c2c(C)n(Cc3ccc(Cl)cc3)c3cc(F)c(C)cc23)ccn1` [Compound 89, 2-(1-(4-chlorobenzyl)-6-fluoro-2,5-dimethyl-1H-indol-3-yl)-N-(2-methoxypyridin-4-yl)-2-oxoacetamide], for which the negative logarithm of the IC50 (pIC50) was over 7.00.

In the case of `COc1ccc2c(c1)c(C(=O)C(=O)Nc1ccnc(OC)c1)c(C)n2Cc1ncc(Cl)cc1Cl` [Compound 82, 2-(1-((3,5-dichloropyridin-2-yl)methyl)-5-methoxy-2-methyl-1H-indol-3-yl)-N-(2-methoxypyridin-4-yl)-2-oxoacetamide], the pIC50 is over 7.00.

On to `COc1ccc2c(c1)c(C(=O)C(=O)Nc1ccnc(OC)c1)c(C)n2Cc1ccc(Cl)nn1` [Compound 86, 2-(1-((6-chloropyridazin-3-yl)methyl)-5-methoxy-2-methyl-1H-indol-3-yl)-N-(2-methoxypyridin-4-yl)-2-oxoacetamide], for which the negative logarithm of the IC50 (pIC50) was over 7.00.

Consider `COc1ccc2c(c1)c(C(=O)C(=O)Nc1ccnc(OC)c1)c(C)n2Cc1ccc(Cl)cn1` [Compound 79, 2-(1-((5-chloropyridin-2-yl)methyl)-5-methoxy-2-methyl-1H-indol-3-yl)-N-(2-methoxypyridin-4-yl)-2-oxoacetamide], for which the pIC50 was over 7.00.

Consider `COc1ccc2c(c1)c(C(=O)C(=O)Nc1ccnc(OC)c1)c(C)n2Cc1ncc(Cl)cc1F` [Compound 87, 2-(1-((5-chloro-3-fluoropyridin-2-yl)methyl)-5-methoxy-2-methyl-1H-indol-3-yl)-N-(2-methoxypyridin-4-yl)-2-oxoacetamide], for which the negative-log IC50 (pIC50) was over 7.00.

With `COc1cc(NC(=O)C(=O)c2c(C)n(Cc3ccc(Cl)cc3)c3cc(OC)c(Cl)cc23)ccn1` [Compound 80, 2-(5-chloro-1-(4-chlorobenzyl)-6-methoxy-2-methyl-1H-indol-3-yl)-N-(2-methoxypyridin-4-yl)-2-oxoacetamide], the pIC50 was over 7.00.

On to `COc1ccc2c(c1)c(C(=O)C(=O)Nc1ccnc(OC)c1)c(C)n2Cc1ncccn1` [Compound 83, 2-(5-methoxy-2-methyl-1-(pyrimidin-2-ylmethyl)-1H-indol-3-yl)-N-(2-methoxypyridin-4-yl)-2-oxoacetamide], for which the negative-log IC50 (pIC50) was 5.00 to 6.00.

For `COc1cc(NC(=O)C(=O)c2c(C)n(Cc3ccc(Cl)cc3F)c3cc(F)c(OC)cc23)ccn1` [Compound 91, 2-(1-(4-chloro-2-fluorobenzyl)-6-fluoro-5-methoxy-2-methyl-1H-indol-3-yl)-N-(2-methoxypyridin-4-yl)-2-oxoacetamide], the pIC50 is over 7.00.

With `COc1ccc2c(c1)c(C(=O)C(=O)Nc1ccnc(OC)c1)c(C)n2Cc1ncc(F)cc1F` [Compound 81, 2-(1-((3,5-difluoropyridin-2-yl)methyl)-5-methoxy-2-methyl-1H-indol-3-yl)-N-(2-methoxypyridin-4-yl)-2-oxoacetamide], the negative-log IC50 (pIC50) is over 7.00.

Regarding `COc1cc(NC(=O)C(=O)c2c(C)n(Cc3ccc(Cl)cc3)c3cccnc23)ccn1` [Compound 3, 2-(1-(4-chlorobenzyl)-2-methyl-1H-pyrrolo[3,2-b]pyridin-3-yl)-N-(2-methoxypyridin-4-yl)-2-oxoacetamide], the pIC50 was over 7.00.
